The record followed here is patent US20240271133A1, “KRAB-Containing Zinc Finger Protein And Cancer” (ECOLE POLYTECHNIQUE FEDERALE DE LAUSANNE (EPFL), priority 2021, published 2024).

This data set relates to U2932 KD cells. As to the method: pLKO.puro shRNA vectors were used for ZNF586, ZNF587 and ZNF417 knock downs. […] The short hairpin RNAs (shRNAs) targeting the sequence ZNF586 (TRCN0000015373 and TRCN0000015376) were obtained from Sigma-Aldrich. Lentiviral vectors production protocols are detailed at http://tronolab.epfl.ch. The cell proliferation after LV transduction was determined using the 3-[4,5-dimethylthiazol-2-yl]-2,5-diphenyltetrazolium bromide (MTT) assay. The cells were transduced at a multiplicity of infection (MOI) of 20 in every experiment.

As to `Nc1ncn([C@H]2C[C@H](O)[C@@H](CO)O2)c(=O)n1` [decitabine], the “cytotoxic interaction of drug with ZNF587/417 depletion” value was “cytotoxic synergism”.

As for `C=CC(=O)N1CCC[C@@H](n2nc(-c3ccc(Oc4ccccc4)cc3)c3c(N)ncnc32)C1` [ibrutinib], the “cytotoxic interaction of drug with ZNF587/417 depletion” value is listed as “cytotoxic synergism”.
